{
  "source": "paper PMC7177833",
  "about": "“2-Aminopyridine Analogs Inhibit Both Enzymes of the Glyoxylate Shunt in Pseudomonas aeruginosa” (International Journal of Molecular Sciences, 2020)",
  "key": {"CYP2C19": {"target": "T1, CYP2C19 (Homo sapiens, UniProt P33261)", "T1 construct": "pooled human liver microsomes; tissue BioIVT; host or cells: pooled human liver microsomes", "T1 sequence (P33261 whole entry)": "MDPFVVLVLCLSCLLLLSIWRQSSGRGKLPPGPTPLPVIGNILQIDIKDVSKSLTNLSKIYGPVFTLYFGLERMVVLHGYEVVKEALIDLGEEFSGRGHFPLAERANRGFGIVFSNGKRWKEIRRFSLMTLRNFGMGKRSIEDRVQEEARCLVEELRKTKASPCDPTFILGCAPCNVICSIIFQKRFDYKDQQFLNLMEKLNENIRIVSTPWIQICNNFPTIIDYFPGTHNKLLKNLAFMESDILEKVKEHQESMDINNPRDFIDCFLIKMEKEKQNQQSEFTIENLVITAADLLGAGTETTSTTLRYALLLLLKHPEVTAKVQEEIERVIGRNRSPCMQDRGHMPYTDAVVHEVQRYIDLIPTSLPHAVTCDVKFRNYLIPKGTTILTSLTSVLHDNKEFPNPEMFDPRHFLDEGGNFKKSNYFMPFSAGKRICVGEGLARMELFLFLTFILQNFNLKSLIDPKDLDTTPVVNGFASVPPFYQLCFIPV", "assay": "CYP450 inhibition in HLM, mephenytoin probe", "format": "in vitro ADME", "experimental": "The CYP450 inhibition was determined by measuring the reaction products of known CYP450 substrates (probes). […] These probe solutions were dispensed (195 µL) into clear 96-well plates with low evaporation lids (Corning, Turin, Italy) and the plates were prewarmed to 37 °C in a thermomixer (Hamilton, Agrate Brianza, Italy). Next, 5 µL of the test compound or appropriate positive control (Table S4) were added to the wells and the plates were incubated for a further 5 min. Following this, the reactions were started by adding NADPH regenerating solution (50 µL, see previous Section 4.7) to each well. CYP450 mixtures containing phenacetin, rosiglitazone, mephenytoin, atorvastatin, and nifedipine probes were incubated for 10 min at 37 °C, whereas those with midazolam and diclofenac were incubated for 5 min at 37 °C. […]\nProbe products were analyzed on an API4000 Qtrap mass spectrometer (Applied Biosystems/MDS SCIEX, Monza, Italy) coupled with an Acquity UPLC system (Waters, Milan, Italy) and a CTC-PAL auto-injector (CTC Analytics AG, Zwingen, Switzerland). […] The analytes were quantified in multiple reaction-monitoring mode. Data were processed, and the percentage control activity was calculated based on a comparison between the ratio of the sample peak area and the peak area."}, "MSPa": {"target": "MSPa (Pseudomonas aeruginosa, UniProt Q9I636)", "sequence (Q9I636 whole entry)": "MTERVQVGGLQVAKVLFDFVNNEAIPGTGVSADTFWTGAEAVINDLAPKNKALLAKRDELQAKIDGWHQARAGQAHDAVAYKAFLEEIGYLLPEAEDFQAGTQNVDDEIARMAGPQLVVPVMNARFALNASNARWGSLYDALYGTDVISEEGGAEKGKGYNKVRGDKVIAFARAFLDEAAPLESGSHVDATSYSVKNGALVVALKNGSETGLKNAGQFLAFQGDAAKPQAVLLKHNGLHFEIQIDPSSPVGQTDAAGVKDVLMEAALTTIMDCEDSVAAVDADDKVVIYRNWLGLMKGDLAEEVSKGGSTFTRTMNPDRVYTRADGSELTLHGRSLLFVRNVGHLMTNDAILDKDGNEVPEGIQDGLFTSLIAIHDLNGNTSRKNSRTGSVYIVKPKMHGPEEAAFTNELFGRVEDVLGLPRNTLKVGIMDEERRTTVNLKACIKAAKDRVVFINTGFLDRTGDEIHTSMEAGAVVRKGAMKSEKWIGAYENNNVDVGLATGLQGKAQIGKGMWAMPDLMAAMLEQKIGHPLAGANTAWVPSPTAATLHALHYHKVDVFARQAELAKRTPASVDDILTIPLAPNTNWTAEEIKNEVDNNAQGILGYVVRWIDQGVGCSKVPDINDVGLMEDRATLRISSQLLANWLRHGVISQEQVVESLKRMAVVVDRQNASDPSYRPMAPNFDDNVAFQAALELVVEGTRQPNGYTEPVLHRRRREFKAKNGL", "assay": "Kinetic mode of action on MSPa", "format": "biochemical", "parameters": "made in house", "experimental": "The enzymatic activity of purified ICLPa and MSPa was assayed essentially as previously described. Compounds were added to the reaction mixtures (minus substrates) and incubated for 5 min at 37 °C. The enzyme concentration in the reaction mixtures was 170 nM for ICL and 25 nM for MS (based on the concentration of the monomer in each case). […] The reactions were initiated by the addition of pH-adjusted substrates, and the initial rates were recorded as A324 nm (for ICLPa) and A412 nm (for MSPa) using a Biospectrometer (Eppendorf, Stevenage, UK). Substrate turnover was calculated from the molar extinction coefficient of the assay products: Glyoxylate-phenylhydrazone (16,800/M/cm) for ICLPa and 2-nitro-5-thiobenzoic acid (14,150/M/cm) for MSPa.\nThe mode of action of SB002 on MSPa and ICLPa was determined by titrating the respective substrates of each enzyme in the presence of three fixed concentrations of SB002 (selected to lie around the measured IC50 value) and measuring the reaction rates as outlined in Section 4.3. Double-reciprocal plots and best-fit inhibition models (GraphPad Prism v. 7.04) were used to assess the mode of inhibition. Inhibition constants were calculated using GraphPad Prism v. 7.04 (GraphPad Software, Inc., La Jolla, CA, USA). Each data point represents the mean ± SD for three independent replicates."}},
  "data": [
    {"molecule": "CC(C)(C)OC(=O)/N=C(\\NC(=O)OC(C)(C)C)Nc1cc(Cl)ccn1", "note": "[SB002]", "values": [
      {"measurement": "IC50 CYP450 2C19", "setting": "CYP2C19", "value": "some evidence of interacting with the turnover of mephenytoin"},
      {"measurement": "IC50", "setting": "CYP2C19; read-out: IC50 CYP450 2C19", "value": 126, "unit": "µM"},
      {"measurement": "Ki", "setting": "MSPa", "value": 4.5, "unit": "µM"},
      {"measurement": "Mode of inhibition of MSPa with respect to acetyl-CoA", "setting": "MSPa; acetyl-CoA varied, saturating (200 µM) glyoxylate", "value": "competitive mode of inhibition"},
      {"measurement": "Ki’ (binding to the ES complex), MSPa", "setting": "MSPa; glyoxylate varied, 200 µM acetyl-CoA", "value": 3.9, "unit": "µM"},
      {"measurement": "Mode of inhibition of MSPa with respect to glyoxylate", "setting": "MSPa; glyoxylate varied, saturating (200 µM) acetyl-CoA", "value": "uncompetitive inhibition at the lower inhibitor concentrations tested, and noncompetitive inhibition at the higher concentration of inhibitor"}
    ]}
  ]
}
